The NIST ThermoML archive (doi:10.1021/acs.jced.6b00178)
Values joined by “and” are separate entries in the source; they are usually repeats but may differ in a detail not shown here. Identical values can stand only once.

Key:
[1] = xn = mol fraction of the nth substance listed; conditions: 100 kPa, Liquid; for viscosity: Concentric cylinders viscometry; for mass density: Vibrating tube method

CCCC[n+]1ccn(C)c1.O=S(=O)([N-]S(=O)(=O)C(F)(F)F)C(F)(F)F
100 kPa, Liquid
Conditions | mass density, Vibrating tube method | viscosity, Concentric cylinders viscometry
283.15 K | 1451.8 kg/m3 | 106.78 mPa·s and 106.77 mPa·s
288.15 K | 1446.9 kg/m3 | 82.14 mPa·s and 82.16 mPa·s
293.15 K | 1442.1 kg/m3 | 66.36 mPa·s and 64.53 mPa·s
298.15 K | 1437.2 kg/m3 | 51.58 mPa·s and 51.6 mPa·s
303.15 K | 1432.4 kg/m3 | 41.94 mPa·s and 41.93 mPa·s
308.15 K | 1427.6 kg/m3 | 34.6 mPa·s and 34.59 mPa·s
313.15 K | 1422.8 kg/m3 and 1422.9 kg/m3 | 29.48 mPa·s and 28.91 mPa·s
318.15 K | 1418.1 kg/m3 and 1418.2 kg/m3 | 24.47 mPa·s and 24.46 mPa·s
323.15 K | 1413.4 kg/m3 and 1413.5 kg/m3 | 20.93 mPa·s and 20.91 mPa·s
328.15 K | 1408.7 kg/m3 and 1408.8 kg/m3 | 18.07 mPa·s and 18.05 mPa·s
333.15 K | 1404.1 kg/m3 and 1404 kg/m3 | 15.95 mPa·s and 15.72 mPa·s
338.15 K | 1399.4 kg/m3 and 1399.3 kg/m3 | 13.83 mPa·s and 13.8 mPa·s
343.15 K | 1394.8 kg/m3 and 1394.7 kg/m3 | 12.23 mPa·s and 12.2 mPa·s
348.15 K | 1390.2 kg/m3 and 1390.1 kg/m3 | 10.9 mPa·s and 10.86 mPa·s
353.15 K | 1385.6 kg/m3 and 1385.5 kg/m3 | 9.985 mPa·s and 9.72 mPa·s
358.15 K | 1381.1 kg/m3 and 1381 kg/m3 | 8.806 mPa·s and 8.754 mPa·s
363.15 K | 1376.6 kg/m3 and 1376.4 kg/m3 | 7.98 mPa·s and 7.926 mPa·s

CCCC[n+]1ccn(C)c1.O=S(=O)([N-]S(=O)(=O)C(F)(F)F)C(F)(F)F + CCCCn1cc[n+](C)c1.N#CN=C=[N-]
[1], x1 = 1
Conditions | mass density [kg/m3] | viscosity [mPa·s]
283.15 K | 1451.8 | 106.77
288.15 K | 1446.9 | 82.16
293.15 K | 1442.1 | 64.53
298.15 K | 1437.2 | 51.6
303.15 K | 1432.4 | 41.93
308.15 K | 1427.6 | 34.59
313.15 K | 1422.8 | 28.91
318.15 K | 1418.1 | 24.46
323.15 K | 1413.4 | 20.91
328.15 K | 1408.7 | 18.05
333.15 K | 1404 | 15.72
338.15 K | 1399.3 | 13.8
343.15 K | 1394.7 | 12.2
348.15 K | 1390.1 | 10.86
353.15 K | 1385.5 | 9.72
358.15 K | 1381 | 8.754
363.15 K | 1376.4 | 7.926

CCCC[n+]1ccn(C)c1.O=S(=O)([N-]S(=O)(=O)C(F)(F)F)C(F)(F)F + CCCCn1cc[n+](C)c1.N#C[S-]
[1], x1 = 1
Conditions | mass density [kg/m3] | viscosity [mPa·s]
283.15 K | 1451.8 | 106.78
288.15 K | 1446.9 | 82.14
293.15 K | 1442.1 | 66.36
298.15 K | 1437.2 | 51.58
303.15 K | 1432.4 | 41.94
308.15 K | 1427.6 | 34.6
313.15 K | 1422.9 | 29.48
318.15 K | 1418.2 | 24.47
323.15 K | 1413.5 | 20.93
328.15 K | 1408.8 | 18.07
333.15 K | 1404.1 | 15.95
338.15 K | 1399.4 | 13.83
343.15 K | 1394.8 | 12.23
348.15 K | 1390.2 | 10.9
353.15 K | 1385.6 | 9.985
358.15 K | 1381.1 | 8.806
363.15 K | 1376.6 | 7.98

CCCC[n+]1ccn(C)c1.O=S(=O)([N-]S(=O)(=O)C(F)(F)F)C(F)(F)F + CCCCn1cc[n+](C)c1.O=S(=O)([O-])C(F)(F)F
[1], x1 = 1
Conditions | mass density [kg/m3] | viscosity [mPa·s]
283.15 K | 1451.8 | 106.78
288.15 K | 1446.9 | 82.14
293.15 K | 1442.1 | 66.36
298.15 K | 1437.2 | 51.58
303.15 K | 1432.4 | 41.94
308.15 K | 1427.6 | 34.6
313.15 K | 1422.9 | 29.48
318.15 K | 1418.2 | 24.47
323.15 K | 1413.5 | 20.93
328.15 K | 1408.8 | 18.07
333.15 K | 1404.1 | 15.95
338.15 K | 1399.4 | 13.83
343.15 K | 1394.8 | 12.23
348.15 K | 1390.2 | 10.9
353.15 K | 1385.6 | 9.985
358.15 K | 1381.1 | 8.806
363.15 K | 1376.6 | 7.98

CCCCn1cc[n+](C)c1.COP(=O)([O-])OC [1-butyl-3-methyl-1H-imidazolium dimethylphosphate]
100 kPa, Liquid
Conditions | mass density, Vibrating tube method [kg/m3] | viscosity, Concentric cylinders viscometry [mPa·s]
283.15 K | 1168.4 | 2315.6
288.15 K | 1164.9 | 1454.6
293.15 K | 1161.4 | 943.97
298.15 K | 1157.9 | 641.71
303.15 K | 1154.3 | 446.92
308.15 K | 1150.9 | 319.33
313.15 K | 1147.6 | 232.1
318.15 K | 1144.3 | 174.7
323.15 K | 1141 | 133.37
328.15 K | 1137.8 | 103.62
333.15 K | 1134.6 | 81.97
338.15 K | 1131.4 | 65.62
343.15 K | 1128.3 | 53.39
348.15 K | 1125.1 | 44.01
353.15 K | 1122 | 37.08
358.15 K | 1118.9 | 30.94
363.15 K | 1115.7 | 26.33

CC(=O)[O-].CCCCn1cc[n+](C)c1 [1-butyl-3-methylimidazolium acetate]
100 kPa, Liquid
Conditions | mass density, Vibrating tube method [kg/m3] | viscosity, Concentric cylinders viscometry [mPa·s]
283.15 K | 1062.7 | 1013.4
288.15 K | 1059.4 | 645.6
293.15 K | 1056 | 421.35
298.15 K | 1052.8 | 292.57
303.15 K | 1049.7 | 206.68
308.15 K | 1046.6 | 150.08
313.15 K | 1043.5 | 110.79
318.15 K | 1040.5 | 85.03
323.15 K | 1037.5 | 66.07
328.15 K | 1034.5 | 52.29
333.15 K | 1031.5 | 42.29
338.15 K | 1028.5 | 34.38
343.15 K | 1025.6 | 28.48
348.15 K | 1022.6 | 23.88
353.15 K | 1019.7 | 20.63
358.15 K | 1016.7 | 17.35
363.15 K | 1013.9 | 15

CCCCn1cc[n+](C)c1.N#CN=C=[N-] [1-butyl-3-methylimidazolium dicyanamide]
100 kPa, Liquid
Conditions | mass density, Vibrating tube method [kg/m3] | viscosity, Concentric cylinders viscometry [mPa·s]
283.15 K | 1070 | 58.35
288.15 K | 1066.7 | 45.91
293.15 K | 1063.4 | 36.83
298.15 K | 1060.2 | 30.08
303.15 K | 1057 | 24.94
308.15 K | 1053.8 | 20.98
313.15 K | 1050.6 | 17.86
318.15 K | 1047.5 | 15.38
323.15 K | 1044.4 | 13.38
328.15 K | 1041.3 | 11.74
333.15 K | 1038.2 | 10.38
338.15 K | 1035.2 | 9.251
343.15 K | 1032.1 | 8.298
348.15 K | 1029.1 | 7.488
353.15 K | 1026.1 | 6.794
358.15 K | 1023.2 | 6.196
363.15 K | 1020.3 | 5.677

CCCCn1cc[n+](C)c1.F[P-](F)(F)(F)(F)F [1-butyl-3-methylimidazolium hexafluorophosphate]
100 kPa
Conditions | mass density [kg/m3] | viscosity [mPa·s]
283.15 K, Metastable liquid, Concentric cylinders viscometry | – | 794.33
283.15 K, Metastable liquid, Vibrating tube method | 1379.9 | –
288.15 K, Concentric cylinders viscometry, Liquid | – | 557.27
288.15 K, Vibrating tube method, Liquid | 1376.5 | –
293.15 K, Concentric cylinders viscometry, Liquid | – | 393.86
293.15 K, Vibrating tube method, Liquid | 1372 | –
298.15 K, Concentric cylinders viscometry, Liquid | – | 285.02
298.15 K, Vibrating tube method, Liquid | 1367.6 | –
303.15 K, Concentric cylinders viscometry, Liquid | – | 210.93
303.15 K, Vibrating tube method, Liquid | 1363.4 | –
308.15 K, Concentric cylinders viscometry, Liquid | – | 159.46
308.15 K, Vibrating tube method, Liquid | 1359.2 | –
313.15 K, Concentric cylinders viscometry, Liquid | – | 122.78
313.15 K, Vibrating tube method, Liquid | 1355.1 | –
318.15 K, Concentric cylinders viscometry, Liquid | – | 96.28
318.15 K, Vibrating tube method, Liquid | 1351 | –
323.15 K, Concentric cylinders viscometry, Liquid | – | 76.72
323.15 K, Vibrating tube method, Liquid | 1347 | –
328.15 K, Concentric cylinders viscometry, Liquid | – | 62.04
328.15 K, Vibrating tube method, Liquid | 1342.9 | –
333.15 K, Concentric cylinders viscometry, Liquid | – | 50.85
333.15 K, Vibrating tube method, Liquid | 1338.9 | –
338.15 K, Concentric cylinders viscometry, Liquid | – | 42.2
338.15 K, Vibrating tube method, Liquid | 1334.9 | –
343.15 K, Concentric cylinders viscometry, Liquid | – | 35.43
343.15 K, Vibrating tube method, Liquid | 1330.9 | –
348.15 K, Concentric cylinders viscometry, Liquid | – | 30.04
348.15 K, Vibrating tube method, Liquid | 1326.9 | –
353.15 K, Concentric cylinders viscometry, Liquid | – | 25.72
353.15 K, Vibrating tube method, Liquid | 1323 | –
358.15 K, Concentric cylinders viscometry, Liquid | – | 22.22
358.15 K, Vibrating tube method, Liquid | 1319 | –
363.15 K, Concentric cylinders viscometry, Liquid | – | 19.36
363.15 K, Vibrating tube method, Liquid | 1315.2 | –

CCCCn1cc[n+](C)c1.F[B-](F)(F)F [1-butyl-3-methylimidazolium tetrafluoroborate] + CCCC[n+]1ccn(C)c1.O=S(=O)([N-]S(=O)(=O)C(F)(F)F)C(F)(F)F
[1], x2 = 0
Conditions | mass density [kg/m3] | viscosity [mPa·s]
283.15 K | 1212.5 | 264.99
288.15 K | 1208.8 | 192.43
293.15 K | 1205.2 | 143.08
298.15 K | 1201.6 | 108.74
303.15 K | 1198 | 84.28
308.15 K | 1194.5 | 66.52
313.15 K | 1190.9 | 53.37
318.15 K | 1187.4 | 43.47
323.15 K | 1184 | 35.89
328.15 K | 1180.5 | 30.01
333.15 K | 1177 | 25.38
338.15 K | 1173.6 | 21.68
343.15 K | 1170.2 | 18.7
348.15 K | 1166.8 | 16.26
353.15 K | 1163.4 | 14.26
358.15 K | 1160.1 | 12.59
363.15 K | 1156.8 | 11.2
